| melting point [°C] | Compound |
| --- | --- |
| 215 to 216 | CCc1cnc2[nH]cc(C(=O)C(C)(C)C)c2n1 [Compound I-12, 1-(2-Ethyl-5H-pyrrolo[2,3-b]pyrazin-7-yl)-2,2-dimethyl-propan-1-one] |
| 209 to 210 | CC(C)(C)C(=O)c1c[nH]c2ncc(Cl)nc12 [Compound I-6, 1-(2-Chloro-5H-pyrrolo[2,3-b]pyrazin-7-yl)-2,2-dimethyl-propan-1-one] |
| 229 to 231 | C#Cc1cnc2[nH]cc(C(=O)C(C)(C)C)c2n1 [Compound I-11, 1-(2-Ethynyl-5H-pyrrolo[2,3-b]pyrazin-7-yl)-2,2-dimethyl-propan-1-one] |
| 278 to 279 | CC(C)NC(=O)c1c[nH]c2ncc(Cl)nc12 [Compound I-3, 2-Chloro-5H-pyrrolo[2,3-b]pyrazine-7-carboxylic acid isopropylamide] |
| 168 to 170 | CC(C)(C)C(=O)c1c[nH]c2ncc(C(O)c3ccccc3)nc12 (stereo not shown) [Compound I-17, 1-[2-(Hydroxy-phenyl-methyl)-5H-pyrrolo[2,3-b]pyrazin-7-yl]-2,2-dimethyl-propan-1-one] |
| 198 to 199 | CC1(C(=O)c2c[nH]c3ncc(Br)nc23)CCCCC1 [Compound I-7, (2-Bromo-5H-pyrrolo[2,3-b]pyrazin-7-yl)-(1-methyl-cyclohexyl)-methanone] |
| 197.7 to 198.2 | CC1(C(=O)c2c[nH]c3ncc(Br)nc23)CCCCCC1 [Compound I-24, (2-Bromo-5H-pyrrolo[2,3-b]pyrazin-7-yl)-(1-methyl-cycloheptyl)-methanone] |
| 181 to 183 | Cc1ccccc1C(O)c1cnc2[nH]cc(C(=O)C(C)(C)C)c2n1 (stereo not shown) [Compound I-16, 1-[2-(Hydroxy-o-tolyl-methyl)-5H-pyrrolo[2,3-b]pyrazin-7-yl]-2,2-dimethyl-propan-1-one] |
| 192 to 194 | CC(C)(C)C(=O)c1c[nH]c2ncc(C(O)c3cccnc3)nc12 (stereo not shown) [Compound I-19, 1-[2-(Hydroxy-pyridin-3-yl-methyl)-5H-pyrrolo[2,3-b]pyrazin-7-yl]-2,2-dimethyl-propan-1-one] |
| 213 to 214 | CC(C)(C)C(=O)c1c[nH]c2ncc(Br)nc12 [Compound I-8, 1-(2-Bromo-5H-pyrrolo[2,3-b]pyrazin-7-yl)-2,2-dimethyl-propan-1-one] |
| 183 to 187.5 | CC(C)CC(=O)c1c[nH]c2ncc(Br)nc12 [Compound I-1, 1-(2-Bromo-5H-pyrrolo[2,3-b]pyrazin-7-yl)-3-methyl-butan-1-one] |
| 189.1 to 194.9 | CC(C)(C)C(=O)c1c[nH]c2ncc(C(O)c3ccncc3)nc12 (stereo not shown) [Compound I-18, 1-[2-(Hydroxy-pyridin-4-yl-methyl)-5H-pyrrolo[2,3-b]pyrazin-7-yl]-2,2-dimethyl-propan-1-one] |
| 148 to 150 | CC(C)C(O)c1cnc2[nH]cc(C(=O)C(C)(C)C)c2n1 (stereo not shown) [Compound I-15, 1-[2-(1-Hydroxy-2-methyl-propyl)-5H-pyrrolo[2,3-b]pyrazin-7-yl]-2,2-dimethyl-propan-1-one] |
